Columns and labels:
[1] = system: NIH3T3 cells transfected with MLVβplink; experiment: Cytotoxicity assay, [3H]-thymidine incorporation, transiently transfected control cells; format: cell-based, murine; details: CMDA 0.5 mM for 3 hours or 24 hours
Experimental: (§1) The ability of CPG2(surface) to kill NIH3T3 cells in the presence of the CMDA pro-drug was examined. Three sets of NIH3T3 cells were prepared, each of which contained one dish of cells transfected with MLVβplink, one dish of cells transfected with MLVCPG2(surface) or one dish of cells transfected with MLVCPG2(surface)LNLL. The cells were incubated for 42 hours following the transfection and then set 1 was incubated in the presence of prodrug vehicle (5 mM Hepes, 0.5% v/v DMSO, pH7.0; final concentrations) for 24 hours. Set 2 was incubated in the presence of the CMDA prodrug (0.5 mM final concentration) for 3 hours. Set 3 was incubated in CMDA (0.5 mM) for 24 hours. Following prodrug treatment, the cells were washed three times with 5 ml 10% FCS/ DMEM and sets 1 and 3 incubted in fresh medium for a further 24 hours, set 2 for 45 hours. The cells were then passaged into fresh culture dishes, seeded at 1×10^5 cells/ 35 mm dish in 2 ml FCS/ DMEM. After a further 72 hour incubation cell growth was assessed by [3H]-thymidine incorporation.
For thymidine incorporaion, 1 μCi of [methyl-^3 H]thymidine was added to each well (2 ml medium) and incubated for 5 hours at 37° C. […] The DNA was extracted with 1 ml 0.1 M NaOH, 1% SDS at room temperature for 5 minutes, added to 4 ml scintilation fluid and the incorporated thymidine determined by scintillation counting.

[2] = system: MDA MB 361 cell line M2 constitutively expressing β-galactosidase; experiment: Cell viability by [3H]-thymidine incorporation, stable control line; format: cell-based
Experimental: (§2) CPG2(surface) QQQ was cloned into pMCEF-Plink as an Nco1/Xba fragment; this plasmid is called pMCEFCPG2(surface)QQQ. MDA361B cells were transfected with either pMCEFCPG2(surface)QQQ, or with pMCEFlacZ according to the protocol described in the Comparative Example and were treated as for the NIH3T3 cells to generate G418 colonies. The G418 resistant colonies were tested for CPG2(surface)QQQ expression by immunoprotein blot analysis, as described for the NIH3T3 cells. From these analyses, two cell lines, M2 which expresses β-galactosidase and M38, which expresses CPG2(surface)QQQ were selected for further testing. […] The expression of β-galactosidase by line M2 was confirmed by enzymatic assay (FIG. 10B, lane 1 contains M2 extract, lane 2 a control extract).
These cell lines were tested for sensitivity to the CMDA prodrug and prodrug 2. 1×10^5 cells were plated into each well of a 24 well plate. The cells were incubated for 48 hours at 37° C. […] The viability of the cells was then determined by using [^3 H]-thymidine incorporation.
In order to examine the bystander effect with the MDA MB 361 cells constitutively expressing CPG2(surface)QQQ, the M38 cell line, the M2 cell line, or a 1:10 mixture of M38: M2 cells were plated (1×10^4 cells) into the wells of a 24 well plate, and incubated for 48 hours. […] The survival of the cells was then determined by [^3 H-methyl] thymidine incorporation.

[3] = system: mixture of NIH3T3 cell lines #3 and #16; experiment: Bystander effect, mixed cell lines, [3H]-thymidine incorporation; format: cell-based, murine; details: 40% of the cells expressing CPG2(surface)LNLL; 250 μM or 1000 μM CMDA for 60 minutes
Experimental: Cell lines #3 and #16 obtained in Preparative Example 2 were tested for cytotoxicity with the CMDA pro-drug. 1×10^5 cells were plated into each well of 24 well dishes, incubated for 40 hours and then treated with increasing concentrations of CMDA at 37° C. for 60 minutes. After a further 6 hour incubation, 10% of the cells were re-plated into 24 well dishes, incubated for a further 5 days and cell survival was determined by [^3 H]-thymidine incorporation.
The bystander effect was determined by mixing cell lines #3 and #16 obtained in Preparative Example 2 at a variety of concentrations as indicated and a total of 1×10^5 cells were plated per well in 24 well plates. The cells were incubated and treated as described in Example 3, except that they were treated with either 250 μM or 1000 μM CMDA for 60 minutes as indicated. The cell survival was determined as in Example 3.

[4] = system: MDA MB 361 cell line M38 constitutively expressing CPG2(surface)QQQ; experiment: Cell viability by [3H]-thymidine incorporation, stable line; format: cell-based; details: for sensitivity to prodrug compared with line M2: 60 minutes at 37° C., viability after 5 days
Experimental: as §2
These cell lines were tested for sensitivity to the CMDA prodrug and prodrug 2. 1×10^5 cells were plated into each well of a 24 well plate. The cells were incubated for 48 hours at 37° C. They were then incubated in increasing concentrations of either CMDA or prodrug 2 for 60 minutes at 37° C., washed twice, returned to medium and incubated for a further 5 days. The viability of the cells was then determined by using [^3 H]-thymidine incorporation.
(§3) In order to examine the bystander effect with the MDA MB 361 cells constitutively expressing CPG2(surface)QQQ, the M38 cell line, the M2 cell line, or a 1:10 mixture of M38: M2 cells were plated (1×10^4 cells) into the wells of a 24 well plate, and incubated for 48 hours. The cells were then treated with varying concentrations of prodrug 2 for 60 min, washed twice with fresh medium and incubated in fresh medium for 5 days. The survival of the cells was then determined by [^3 H-methyl] thymidine incorporation.

[5] = system: NIH3T3 cell line #3 constitutively expressing β-galactosidase; experiment: Cell survival by [3H]-thymidine incorporation, stable control line; format: cell-based, murine; details: increasing concentrations, 60 minutes at 37° C.
Experimental: (§4) Stable cell lines were prepared with NIH3T3 cells to constitutively express CPG2 (surface) LNLL, or as a control the lacZ gene product (β-galactosidase). In order to do this, NIH3T3 cells were transfected with pMCEF-CPG2(surface)LNLL or pMCEFlacZ as described in Comparative Example 1 above, and two days after transfection, the cells were plated at low density into medium containing G418 at 1 mg/ml. Colonies coming from single cells could be observed about two weeks later and these were cloned and grown up individually. The expression of CPG2(surface) was determined by immunoprotein blotting of […] of cell extract (extracted as described in the Comparative Example above) from each of the G418 resistant colonies with the antiserum from the Comparative Example 1 above. The cell line #16 which expresses high levels of CPG2(surface)LNLL (FIG. 6A) and cell line #3, which expresses the β-galactosidase (see below) were selected for further investigation. […] 250 μl of 1 MNa2 CO3 was added to the sample and the OD420 was measured.
(§5) Cell lines #3 and #16 obtained in Preparative Example 2 were tested for cytotoxicity with the CMDA pro-drug. […] After a further 6 hour incubation, 10% of the cells were re-plated into 24 well dishes, incubated for a further 5 days and cell survival was determined by [^3 H]-thymidine incorporation.

[6] = system: NIH3T3 cells transfected with MLVCPG2(surface); experiment: Cytotoxicity assay, [3H]-thymidine incorporation, transiently transfected cells; format: cell-based, murine; details: CMDA 0.5 mM
Experimental: as §1
(§6) For thymidine incorporaion, 1 μCi of [methyl-^3 H]thymidine was added to each well (2 ml medium) and incubated for 5 hours at 37° C. The cells were washed twice with PBSA (4° C.) and fixed with 5% w/v trichloroacetic acid (TCA) in water at 4° C. for 20 minutes. The TCA was removed and the cells washed twice with 2 ml methanol and air dried. The DNA was extracted with 1 ml 0.1 M NaOH, 1% SDS at room temperature for 5 minutes, added to 4 ml scintilation fluid and the incorporated thymidine determined by scintillation counting.

[7] = system: NIH3T3 cells transfected with MLVCPG2(surface)LNLL; experiment: as above; format: cell-based, murine; details: CMDA 0.5 mM
Experimental: as §1, §6

[8] = system: NIH3T3 cell line #16 constitutively expressing CPG2(surface)LNLL; experiment: Cell survival by [3H]-thymidine incorporation, stable line; format: cell-based, murine; details: Mus musculus, 60 minutes treatment at 37° C., survival after 5 days
Experimental: as §4, §5

[9] = system: 1:10 mixture of M38:M2 MDA MB 361 cells; experiment: Bystander effect, mixed cell lines, [3H]-thymidine incorporation; format: cell-based; details: Example 7
Experimental: as §3

[10] = system: MDA MB361 transfected cells (CPG2-expressing line and control line); experiment: Sulphorhodamine B cytotoxicity assay; format: cell-based; details: 4 days incubation
Experimental: Prodrug 2 was also assayed (FIG. 12) in the MDA MB361 transfected cells obtained in Preparative Example 3 using a sulphorhodamine B cytotoxicity assay which was conducted by plating 5000 cells per well in a 96-well microtitre dish. The cells were plated in 160 μl of DMEM medium. After incubation over night the drug or appropriate controls made up in DMEM containing 5% serum was added to the wells in a 40 μl volume. The cells were incubated for 4 days under standard conditions. Following this the medium was removed and the cells treated with ice-cold 10% TCA (trichloroacetic acid) on ice for about 30 minutes. The TCA was removed and the cells rinsed for adding 18 μl of 0.4% sulphorhodamine B (SRB) which was left to stain the cells for 10 minutes. Following staining the cells were rinsed in TCA and air dried before addition of 18 μl of 10 mM TRIS and cell viability was then read. […] (see FIG. 12)

## CS(=O)(=O)OCCN(CCCl)c1ccc(C(=O)N[C@@H](CCC(=O)O)C(=O)O)cc1 [CMDA, N-4-[(2-chloroethyl)(2-mesyloxyethyl)amino]benzoyl-L-glutamic acid]
[1]
  effect of prodrug treatment on growth rate: minimal effect
[2]; 60 minutes at 37° C., up to highest concentration tested
  sensitivity to prodrug: did not show any sensitivity
[3]
  cells killed: greater than 80%
[4]
  sensitivity to prodrug compared with line M2: more sensitive
[5]
  sensitivity to prodrug (cell survival): not sensitive to even the highest concentration
[6]; 3 hour prodrug treatment
  effect of prodrug treatment on cell growth: unaffected
[6]; Mus musculus, NIH3T3, 24 hour prodrug treatment, read-out: inhibition of cell growth
  inhibition at 500 µM: -87%
[7]; 24 hour prodrug treatment
  effect of prodrug treatment on cell growth: complete cell death
[7]; Mus musculus, NIH3T3, 3 hour prodrug treatment, read-out: reduction in cell growth
  inhibition at 500 µM: -20%
[8]
  IC50: 125 µM

## O=C(O)CC[C@H](NC(=O)Oc1ccc(N(CCI)CCI)cc1)C(=O)O [prodrug 2, N-(4-[bis(2-iodoethyl)amino]phenoxycarbonyl)-L-glutamic acid]
[2]; Example 7, 60 min treatment, survival after 5 days
  IC50: ~200 µM
[4]
  sensitivity to prodrug compared with line M2: more sensitive
[4]; Example 5, 1×10^5 cells per well, 60 minutes treatment
  fold more sensitive, M38 cells versus M2 cells: ~200 fold
[9]
  fold change of IC50 in 1:10 mixture versus M2: -10 fold

## [NH2][Pt]([NH2])([Cl])[Cl] [CDDP, Cisplatin]
[10]
  difference in susceptibility, CPG2-expressing line versus control line: not found to be any difference

— patent publication US6025340A, “Surface expression of enzyme in gene directed prodrug therapy” (priority 1994, dated 2000)
